Key:
[1] = tested on: human pancreatic cancer cell line SW; test: MTT cell cytotoxicity assay, SW pancreatic cancer cell line; assay type: cell-based; conditions: 48 hours
Experimental: A human pancreatic cancer cell line SW was purchased from Institute of Biochemistry and Cell Biology, Shanghai Institutes for Biological Sciences, Chinese Academy of Sciences (SIBCB, CAS, China). SW cell was grown in RPMI 1640 medium supplemented with 10% FBS and maintained in a humidified 5% CO2 atmosphere at 37° C. and the culture medium was changed once in 2 days.
(§1) The cytotoxic effect of CuB on SW cell was determined using MTT (3-[4,5-dimethylthiazol-2-yl]-2,5-diphenyl tetrazolium bromide) labeled cell cytotoxicity assay. A total of 1×10^4 cells were seeded into a 96-well plate for 24 hours prior to cucurbitacin B (CuB) treatment. They were then treated with different dosages of CuB for 48 hours. After the treatment, 20 μl of MTT (5 mg/ml) was added to each well and incubated for 4 hrs. Then the medium was discarded and 100 μl of dimethyl sulfoxide was added. The absorbance at 570 nm was then measured by FLUOstar OPTIMA equipment (BMG, LABTECH GmbH, Germany). The percentage of inhibition against different dosages of CuB were plotted using the Prism software and the 50% inhibition concentration (IC50) were obtained.

Panc 02.13 = test: MTT cell cytotoxicity assay, Panc 02.13; assay type: cell-based; conditions: Homo sapiens, 48 hours
Experimental: Three human pancreatic cancer cell lines (Panc-1, Panc 02.13, Panc 10.05) were purchased from American Type Culture Collection (ATCC, Manassas, Va., USA). Panc 02.13 and Panc 10.05 were grown in RPMI 1640 medium supplemented with 15% FBS, 4.5 g/L glucose, 10 mM HEPES, and 1.0 mM sodium pyruvate and 10 Units/ml human insulin; while PANC-1 was grown in Dulbecco's modified Eagle's medium supplemented with 10% FBS. They were maintained in a humidified 5% CO2 atmosphere at 37° C. and the culture medium was changed once in 2 days.
as §1, with “on these three cancer” for “on SW”, “cell lines were” for “cell was”, “obtained. […]” for “obtained.”

[2] = tested on: human MDA-MB-231 breast cancer cells; test: Orthotopic human breast cancer model in nude mice; assay type: in vivo
Experimental: One million human MDA-MB-231 breast cancer cells/Matrigel (vol 1:1) were inoculated isotopically into the breasts of nude mice. The mice received intraperitoneal injections of 1 mg/ml of cucurbitacin B 3 times a week starting on the day after inoculation of the cells. The longitudinal and the transverse diameter, and the height were measured once a week. The volume was calculated by multiplying these elements, and the relative tumor size was determined by dividing the product by the initial volume. After 6 weeks, the mice were sacrificed to weigh the dissected tumors. At that moment, blood was taken for analysis, where organs and tumors were inspected, dissected, fixed and stained with hematoxylin-eosin and/or Ki-67. Data were expressed as mean±SD. Statistical analysis was performed by student's t test.
Six weeks after i.p. treatment with either vehicle or cucurbitacin B 1 mg/kg three times a week, mice were euthanized and tumors were observed and weighed. Results represented the mean and SD of 9 treated and 9 control tumors. Statistical analysis was performed by student's t test.

K562 cells = test: Flow cytometry for cell cycle analysis, K562; assay type: cell-based, human; conditions: 80 nM, 48 hours, serum starved 24 hours
Experimental: K562 cells were serum starved for 24 hours prior to cucurbitacin B treatment. After 48 hours of treatment, the cells were collected and rinsed twice with phosphate-buffer saline and fixed with 80% ice-cold ethanol for […]. Then, the cells were stained with propidium iodine at 1 mg/ml for 15 minutes at room temperature. The stained cells were analyzed by flow cytometry (FACS Calibur BD Flow Cytometer) • 6.1.6 Western Blot Analysis
Appropriate numbers of cell density were serum starved for 24 hours prior to treatment with different doses of cucurbitacin B for 2 days. The cell cycle analysis profile of K562 cells after cucurbitacin B treatment were detected using Flow Cytometry analysis after fixed with 80% ice-cold ethanol at 4° C. and then stained with PI for 15 minutes.

[3] = tested on: HL60 cells and U937 cells; test: Cytocentrifuged, fixed and stained cells (multinucleation); assay type: cell-based, human; conditions: 1×10^−8 M or 5×10^−8 M, 96 hours
Experimental: HL60 cells, as depicted in FIGS. 13A to 13C, and U937 cells, as depicted in FIGS. 13D to 13F, were cytocentrifuged, fixed and stained. Cells were treated with either 1×10^−8 M (FIGS. 13B, 13C and 13E) or 5×10^−8 M (FIG. 13F) cucurbitacin B for 96 hours, and compared with diluent treated control cells (FIGS. 13A and […]).

Erk1/2 = test: Western blot of Erk1/2 in HepG2, HT29 and MCF-7 cells; assay type: cell-based, human
Experimental: The human cancer cells line were serum starved for 18 hours prior to CuB/CuD treatment. Cells were incubated in a 6-well plate filled with 5 ml growth medium (RPMI with 0.2% FBS and 1% PS) at the cell density of 1×10^5 cells/ml, in the presence or absence of two different dosages of CuB/CuD for various time intervals. The drug treatment was terminated by centrifugation at 1,500 rpm for 5 minutes and the cells were rinsed twice with phosphate-buffered saline and lysed at 4° C. in a lysis buffer containing 50 mM Tris-HCl, pH7.5, 100 mM NaCl, 5 mM EDTA, 40 mM NaP2O7, 1% Triton X-100, 1 mM dithiothreitol, 200 μM Na3VO4, 100 uM phenylmethysufonyl fluoride, 2 μg/ml leupeptin, 4 μg/ml aprotinin and 0.7 μg/ml pepstatin. The insoluble protein lysate were removed by centrifugation for 10 minutes at 13,000 rpm. Fifteen micrograms of protein lysate was resolved using 10% SDS-polyacryamide gel electrophoresis (PAGE) and then subjected to western blot anaylsis. Western blots were performed with anti-Stat3, anti-Erk1/2 and anti-hsp27 antibodies specific for phosphor- and total Stat3, Erk and hsp27 proteins. The protein bands were then visualized with the Enhanced Chemiluminescence Plus (ECL Plus) detection system (Amersham). • 6.2.8.1 Inhibition Effect Cucurbitacin B/Cucurbitacin D on Stat3 Activation in HepG2 and HT29 Cells
Cells were incubated either with CuB or CuD (25 ug/ml or the dosage of IC50) for various time intervals (5, 10 or 30 mins, 1 or 4 hours). The Stat3 activation was detected by western blot.

CC(=O)OC(C)(C)/C=C/C(=O)[C@](C)(O)C1[C@H](O)C[C@@]2(C)C3CC=C4C(C[C@H](O)C(=O)C4(C)C)[C@]3(C)C(=O)C[C@]12C (stereo partly drawn) [cucurbitacin B]
IC50 [1]: ~274 nM
GI50 (Panc 02.13): 5.13 µM
weight of dissected tumors vs vehicle treated mice ([2]; i.p. 1 mg/kg three times a week, six weeks): weighed significantly less
growth of MDA-MB-231 tumors compared with control ([2]; intraperitoneal 1 mg/kg 3 times a week, 6 weeks): 50.1%
percentage in the G2/M phase (K562 cells): 70%
cell morphology (multinucleation) [3]: enlarged, multinucleated cells
expression of Erk1/2 (Erk1/2; HT29, 5 minutes of treatment): up-regulated the expression of Erk1/2 significantly
expression of Erk1/2 (Erk1/2; HepG2, 30 minutes of treatment): up-regulated the expression of Erk1/2 significantly
Erk activation (Erk1/2; MCF-7 cells, 5 minutes): significant Erk activation
